In assay [1] the target is Chymotrypsin (Homo sapiens, UniProt P17538). In words: Enzymatic assay, chymotrypsin inhibition (apparent Ki). In kind it is biochemical. To be noted: substrate N-succinyl-Ala-Ala-Pro-Phe-4-nitroanilide 1.6 mM. How it is done:
(§1) The active enzyme concentrations were calculated using the equation described by Hendersen (P. J. F. Hendersen, Biochem. J. 1972, 127, 321-333). The inhibitor concentrations were determined by quantitative amino acid analysis. All assays were repeated in quadruplicate.
(§2) As above, except the substrate was N-succinyl-L-alanyl-L-alanyl-L-prolyl-L-phenylalanin-4-nitroanilide (N-succinyl—SEQ ID NO:16—4-nitroanilide; 1.6 mM).
(§3) Apparent Ki values were calculated by fitting the initial rate data to the following equation, which assumes competitive tight-binding inhibition (J. F. Williams, J. F. Morrison, Methods Enzymol. 1979, 63, 437-467): […]

In assay [2] the target is T1, Trypsin (Bos taurus, UniProt P00760).
T1 sequence (P00760 24-246): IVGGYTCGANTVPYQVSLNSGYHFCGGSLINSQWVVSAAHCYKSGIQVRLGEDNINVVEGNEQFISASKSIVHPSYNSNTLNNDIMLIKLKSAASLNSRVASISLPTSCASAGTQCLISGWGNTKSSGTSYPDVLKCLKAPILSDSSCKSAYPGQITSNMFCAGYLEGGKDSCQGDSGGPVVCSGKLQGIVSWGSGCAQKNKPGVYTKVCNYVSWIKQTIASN
In words: Enzymatic assay, determination of antitrypsin activity (apparent Ki). In kind it is biochemical. The conditions noted are these: competitive tight-binding fit. On the procedure:
as §1
Determination of Antitrypsin Activity
as §2, §3

In assay [3] the target is Trypsin. In words: enzyme inhibition, chromogenic substrate; apparent Ki fitted as competitive tight-binding inhibition.
A further assay concerns the target T2, Cathepsin G (human, UniProt P08311 21-244).
T2 construct: the assay paragraph itself says only 'cathepsin G ... purchased from Calbiochem'; also called human cathepsin G
T2 sequence (looked up): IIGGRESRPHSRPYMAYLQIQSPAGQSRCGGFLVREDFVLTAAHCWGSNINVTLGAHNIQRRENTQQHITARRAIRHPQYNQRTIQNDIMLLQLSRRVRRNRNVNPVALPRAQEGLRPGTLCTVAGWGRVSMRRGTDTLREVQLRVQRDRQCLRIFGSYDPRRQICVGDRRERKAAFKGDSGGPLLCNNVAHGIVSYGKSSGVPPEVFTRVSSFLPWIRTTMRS
In words: enzyme inhibition, Suc-Ala-Ala-Pro-Phe-pNA substrate, release of p-nitroanilide at 405 nm. On the procedure: Determination of Anti Cathepsin G Activity […] of a solution of cathepsin G (0.2 U/mL, corresponding to around 2 µM, purchased from Calbiochem) were incubated for 15 minutes with increasing concentrations of inhibitor. The assays were carried out at 37° C. in a total volume of 700 µl of HEPES buffer (pH 7.5; 0.1 mol/L) containing 0.05 mol/L CaCl_2. Then, 70 µl of the following substrate at 20 mM in DMSO were added (—N-succinyl-L-alanyl-L-alanyl-L-prolyl-L-phenylalanin-4-nitroanilide, (N-succinyl—SEQ ID NO:16—4-nitroanilide). The release of p-nitroanilide was monitored at 405 nm to determine the initial velocities of the reactions. Each measurement was reproduced three times (A. J. Barrett, Methods in Enzymology 1981, 80, 561-565).

For assay [4], the target named is Chymotrypsin. In words: enzyme inhibition, chromogenic substrate; apparent Ki fitted as competitive tight-binding inhibition.

Where a SMILES comes first, the peptide text is derived from it. Bridges are numbered along the chain shown (N, C = ends). [ ]: non-standard residue; d: D form.

Chain of Chymotrypsin (Homo sapiens, UniProt P17538) (P17538 19-263): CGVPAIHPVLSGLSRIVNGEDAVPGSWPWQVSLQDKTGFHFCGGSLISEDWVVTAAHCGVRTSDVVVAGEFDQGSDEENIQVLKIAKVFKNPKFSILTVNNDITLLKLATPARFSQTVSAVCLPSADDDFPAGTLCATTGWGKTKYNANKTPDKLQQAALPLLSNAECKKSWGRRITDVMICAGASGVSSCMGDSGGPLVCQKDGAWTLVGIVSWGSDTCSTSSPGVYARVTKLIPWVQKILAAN

For `CC[C@H](C)[C@@H]1NC(=O)[C@@H]2CCCN2C(=O)[C@@H]2CCCN2C(=O)[C@H]([C@@H](C)CC)NC(=O)[C@H](CO)NC(=O)[C@H](CCCCN)NC(=O)[C@H]([C@@H](C)O)NC(=O)[C@@H]2CCCN2C(=O)[C@H]2CCCN2C1=O` [Ex. 1] (cyclo(TKSIPPI[dP]P)), the figures for the Ki on Chymotrypsin [1] and at Trypsin [2] were over 10000 nM and 100 nM, respectively.

On to `CC[C@H](C)[C@@H]1NC(=O)[C@@H]2CCCN2C(=O)[C@@H]2CCCN2C(=O)[C@H]([C@@H](C)CC)NC(=O)[C@H](CO)NC(=O)[C@H](CCCCN)NC(=O)[C@H](C)NC(=O)[C@@H]2CCCN2C(=O)[C@H]2CCCN2C1=O` [Ex. 2] (cyclo(AKSIPPI[dP]P)), for which the Ki on Trypsin [2] came to 1500 nM.

Regarding `CC[C@H](C)[C@@H]1NC(=O)[C@@H]2CCCN2C(=O)[C@@H]2CCCN2C(=O)[C@H]([C@@H](C)CC)NC(=O)[C@H](CO)NC(=O)[C@H](C)NC(=O)[C@H]([C@@H](C)O)NC(=O)[C@@H]2CCCN2C(=O)[C@H]2CCCN2C1=O` [Ex. 3] (cyclo(TASIPPI[dP]P)), the Ki on Trypsin [2] is over 10000 nM.

As for `CC[C@H](C)[C@@H]1NC(=O)[C@@H]2CCCN2C(=O)[C@@H]2CCCN2C(=O)[C@H]([C@@H](C)CC)NC(=O)[C@H](C)NC(=O)[C@H](CCCCN)NC(=O)[C@H]([C@@H](C)O)NC(=O)[C@@H]2CCCN2C(=O)[C@H]2CCCN2C1=O` [Ex. 4] (cyclo(TKAIPPI[dP]P)), at Trypsin [2], the Ki stood at 700 nM.

For `CC[C@H](C)[C@@H]1NC(=O)[C@@H]2CCCN2C(=O)[C@@H]2CCCN2C(=O)[C@H](C)NC(=O)[C@H](CO)NC(=O)[C@H](CCCCN)NC(=O)[C@H]([C@@H](C)O)NC(=O)[C@@H]2CCCN2C(=O)[C@H]2CCCN2C1=O` [Ex. 5] (cyclo(TKSAPPI[dP]P)), at Trypsin [2], the Ki came out at 1900 nM.

`CC[C@H](C)[C@@H]1NC(=O)[C@H](CO)NC(=O)[C@H](CCCCN)NC(=O)[C@H]([C@@H](C)O)NC(=O)[C@@H]2CCCN2C(=O)[C@H]2CCCN2C(=O)[C@H]([C@@H](C)CC)NC(=O)[C@@H]2CCCN2C(=O)[C@H](C)NC1=O` [Ex. 6] (cyclo(TKSIAPI[dP]P)): the Ki at Trypsin [2] is over 25000 nM.

Regarding `CC[C@H](C)[C@@H]1NC(=O)[C@H](C)NC(=O)[C@@H]2CCCN2C(=O)[C@H]([C@@H](C)CC)NC(=O)[C@H](CO)NC(=O)[C@H](CCCCN)NC(=O)[C@H]([C@@H](C)O)NC(=O)[C@@H]2CCCN2C(=O)[C@H]2CCCN2C1=O` [Ex. 7] (cyclo(TKSIPAI[dP]P)), the Ki on Trypsin [2] is 110 nM.

Regarding `CC[C@H](C)[C@@H]1NC(=O)[C@H](CO)NC(=O)[C@H](CCCCN)NC(=O)[C@H]([C@@H](C)O)NC(=O)[C@@H]2CCCN2C(=O)[C@H]2CCCN2C(=O)[C@H](C)NC(=O)[C@@H]2CCCN2C(=O)[C@@H]2CCCN2C1=O` [Ex. 8] (cyclo(TKSIPPA[dP]P)), the Ki on Trypsin [2] was 710 nM.

With `CC[C@H](C)[C@@H]1NC(=O)[C@@H]2CCCN2C(=O)[C@@H]2CCCN2C(=O)[C@H]([C@@H](C)CC)NC(=O)[C@H](CO)NC(=O)[C@H](Cc2ccc(O)cc2)NC(=O)[C@H]([C@@H](C)O)NC(=O)[C@@H]2CCCN2C(=O)[C@H]2CCCN2C1=O` [Ex. 9] (cyclo(TYSIPPI[dP]P)), the values for the Ki at Chymotrypsin [1] and on Trypsin [2] were 4400 nM and over 25000 nM, respectively.

For `CC[C@H](C)[C@@H]1NC(=O)[C@@H]2CCCN2C(=O)[C@@H]2CCCN2C(=O)[C@H]([C@@H](C)CC)NC(=O)[C@H](CO)NC(=O)[C@H](Cc2c[nH]c3ccccc23)NC(=O)[C@H]([C@@H](C)O)NC(=O)[C@@H]2CCCN2C(=O)[C@H]2CCCN2C1=O` [Ex. 10] (cyclo(TWSIPPI[dP]P)), the Ki was 1400 nM at Chymotrypsin [1] and over 20000 nM on Trypsin [2].

As to `CC[C@H](C)[C@@H]1NC(=O)[C@@H]2CCCN2C(=O)[C@@H]2CCCN2C(=O)[C@H]([C@@H](C)CC)NC(=O)[C@H](CO)NC(=O)[C@H](Cc2ccccc2)NC(=O)[C@H]([C@@H](C)O)NC(=O)[C@@H]2CCCN2C(=O)[C@H]2CCCN2C1=O` [Ex. 11] (cyclo(TFSIPPI[dP]P)), the Ki on Chymotrypsin [1] is 4700 nM; at Trypsin [2] it was over 20000 nM.

Regarding `CC[C@H](C)[C@@H]1NC(=O)[C@@H]2CCCN2C(=O)[C@@H]2CCCN2C(=O)[C@H]([C@@H](C)CC)NC(=O)[C@H](CO)NC(=O)[C@H](CCCCN)NC(=O)[C@H]([C@@H](C)O)NC(=O)[C@@H]2CSSC[C@H](NC1=O)C(=O)N[C@@H](Cc1ccccc1)C(=O)N1CCC[C@@H]1C(=O)N1CCC[C@H]1C(=O)N[C@@H](CCCNC(=N)N)C(=O)N2` [Ex. 15] (cyclo(RCTKSIPPICF[dP]P); disulfide 2-10), the Ki is 3800 nM on Chymotrypsin [1] and 21 nM at Trypsin [2].

B1: Ex. 1 (peptide)
peptide: cyclo(TKSIPPI[dP]P)
SMILES: CC[C@H](C)[C@@H]1NC(=O)[C@@H]2CCCN2C(=O)[C@@H]2CCCN2C(=O)[C@H]([C@@H](C)CC)NC(=O)[C@H](CO)NC(=O)[C@H](CCCCN)NC(=O)[C@H]([C@@H](C)O)NC(=O)[C@@H]2CCCN2C(=O)[C@H]2CCCN2C1=O
notes: Template-fixed beta-hairpin mimetic, cyclic; parent of the Ala scan
Take B1: the Ki turned out to be 100 nM with Trypsin [3] and 100000 nM in the assay with Cathepsin G.

B2: Ex. 15 (peptide)
peptide: cyclo(RCTKSIPPICF[dP]P)
modifications: disulfide 2-10
SMILES: CC[C@H](C)[C@@H]1NC(=O)[C@@H]2CCCN2C(=O)[C@@H]2CCCN2C(=O)[C@H]([C@@H](C)CC)NC(=O)[C@H](CO)NC(=O)[C@H](CCCCN)NC(=O)[C@H]([C@@H](C)O)NC(=O)[C@@H]2CSSC[C@H](NC1=O)C(=O)N[C@@H](Cc1ccccc1)C(=O)N1CCC[C@@H]1C(=O)N1CCC[C@H]1C(=O)N[C@@H](CCCNC(=N)N)C(=O)N2
notes: n=11 mimetic made by procedure 3 (disulfide between P2 and P10)
As for B2, the Ki in the assay with Trypsin [3] amounted to 21 nM; in the assay with Chymotrypsin [4], 3800 nM; in the assay with Cathepsin G it was 10000 nM.

The values are drawn from patent US7417024B2, “Template-fixed peptidomimetics as inhibitors of serine proteases” (Polyphor Ltd., priority 2001, dated 2008).
